Here are results for 18 compounds from patent publication US9969742B2, “Imidazotriazinone compounds” (Ironwood Pharmaceuticals, Inc., priority 2012, dated 2018).

Common to all, as to assay type: biochemical
The target in one assay is T1, PDE9A2 (Homo sapiens, UniProt O76083).
T1 construct: purchased Reaction Biology Corporation, Malvern, Pa
Briefly: Phosphodiesterase enzyme screening assay, PDE9A2. The gist of the method: (§1)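 Compounds were tested on commercial human PDE enzymes using a fluorescent cGMP substrate at 4.0 μM, incubated for one hour at room temperature. Values are means of four wells versus controls.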

The target in another assay is T2, PDE1A (Homo sapiens, UniProt P54750).
T2 construct: purchased Reaction Biology Corporation, Malvern, Pa
T2 sequence (P54750 whole entry): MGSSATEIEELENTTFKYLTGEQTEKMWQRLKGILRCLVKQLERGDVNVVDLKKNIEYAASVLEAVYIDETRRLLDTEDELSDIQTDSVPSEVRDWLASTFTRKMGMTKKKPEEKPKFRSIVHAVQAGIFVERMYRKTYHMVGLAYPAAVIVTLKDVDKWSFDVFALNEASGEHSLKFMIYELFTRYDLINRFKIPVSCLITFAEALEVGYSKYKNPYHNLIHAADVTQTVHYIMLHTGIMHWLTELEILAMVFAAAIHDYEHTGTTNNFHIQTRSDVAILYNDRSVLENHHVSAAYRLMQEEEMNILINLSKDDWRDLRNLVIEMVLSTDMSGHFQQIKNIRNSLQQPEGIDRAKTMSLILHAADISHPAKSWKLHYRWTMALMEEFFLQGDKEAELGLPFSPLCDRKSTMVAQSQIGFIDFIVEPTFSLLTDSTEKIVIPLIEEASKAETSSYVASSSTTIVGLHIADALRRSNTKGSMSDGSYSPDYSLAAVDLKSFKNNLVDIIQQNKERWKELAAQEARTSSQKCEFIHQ
Briefly: Phosphodiesterase enzyme screening assay, PDE1A. The gist of the method:
as §1

The next assay has as its target T3, PDE1B (Homo sapiens, UniProt Q01064).
T3 construct: purchased Reaction Biology Corporation, Malvern, Pa
Briefly: Phosphodiesterase enzyme screening assay, PDE1B. The gist of the method: as §1

Setting [1] is: ratio of IC50 values, PDE1A versus PDE9A2, value greater than 1 indicates greater selectivity for PDE9A2.
Setting [2] is: ratio of IC50 values, PDE1B versus PDE9A2, value greater than 1 indicates greater selectivity for PDE9A2.
[3] abbreviates: 4.0 μM cGMP substrate, 1 hour at R.T., read-out: Band (PDE9A2 IC50).
The mark [4] stands for this setting: ratio of IC50 values PDE1A / PDE9A2, value greater than 1 indicates greater selectivity for PDE9A2.
The mark [5] stands for this setting: ratio of IC50 values PDE1B / PDE9A2, value greater than 1 indicates greater selectivity for PDE9A2.
[6] abbreviates: Table 1, 10 concentrations, 4.0 μM cGMP substrate, 1 hour at R.T., read-out: Band (PDE9A2 IC50).
Where [7] appears, read: Table 1, ratio of IC50 values, value greater than 1 indicates greater selectivity for PDE9A2.
Where [8] appears, read: Table 3, 4.0 μM cGMP substrate, 1 hour at R.T., read-out: Band (PDE9A2 IC50).
Where [9] appears, read: ratio of IC50 values, PDE1A versus PDE9A2, value greater than 1 = greater selectivity for PDE9A2.
Where [10] appears, read: ratio of IC50 values, PDE1B versus PDE9A2, value greater than 1 = greater selectivity for PDE9A2.

Read-outs that look alike come from different tables or passages of the source.

T3 sequence (Q01064 whole entry): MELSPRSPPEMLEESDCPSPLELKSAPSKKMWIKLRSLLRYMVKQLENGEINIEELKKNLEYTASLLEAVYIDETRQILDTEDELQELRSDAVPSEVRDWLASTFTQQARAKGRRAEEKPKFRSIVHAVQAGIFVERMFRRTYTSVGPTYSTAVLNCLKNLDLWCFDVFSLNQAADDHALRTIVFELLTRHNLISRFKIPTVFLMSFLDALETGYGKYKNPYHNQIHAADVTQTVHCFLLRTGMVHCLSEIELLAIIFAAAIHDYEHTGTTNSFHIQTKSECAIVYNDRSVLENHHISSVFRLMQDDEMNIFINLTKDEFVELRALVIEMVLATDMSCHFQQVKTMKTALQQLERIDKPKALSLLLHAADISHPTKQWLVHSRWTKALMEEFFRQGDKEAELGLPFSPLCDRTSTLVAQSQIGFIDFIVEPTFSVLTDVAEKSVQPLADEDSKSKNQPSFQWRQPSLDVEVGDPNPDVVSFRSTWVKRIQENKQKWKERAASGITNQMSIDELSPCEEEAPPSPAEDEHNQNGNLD
T1 sequence (O76083 1-533 isoform O76083-2): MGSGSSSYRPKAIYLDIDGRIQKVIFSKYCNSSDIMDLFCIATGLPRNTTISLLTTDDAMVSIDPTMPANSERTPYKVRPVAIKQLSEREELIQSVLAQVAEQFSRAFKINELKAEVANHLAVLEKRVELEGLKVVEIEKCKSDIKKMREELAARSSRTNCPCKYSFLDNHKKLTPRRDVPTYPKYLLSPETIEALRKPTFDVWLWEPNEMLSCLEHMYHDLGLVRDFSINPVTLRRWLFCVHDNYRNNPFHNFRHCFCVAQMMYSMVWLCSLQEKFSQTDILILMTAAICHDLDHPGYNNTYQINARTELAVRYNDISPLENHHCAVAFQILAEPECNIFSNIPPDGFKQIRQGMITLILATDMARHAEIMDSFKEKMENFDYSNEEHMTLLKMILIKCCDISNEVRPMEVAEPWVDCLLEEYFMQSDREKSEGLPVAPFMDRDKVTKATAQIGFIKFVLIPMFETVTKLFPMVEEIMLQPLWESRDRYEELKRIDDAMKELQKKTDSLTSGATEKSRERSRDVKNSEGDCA

A word on the IC50: it is the concentration needed to halve the response being measured. Turning to `Cc1ccc(F)cc1-c1ncc2c(=O)[nH]c(C3CN(Cc4nc5ccccn5n4)CC3C)nn12` (single isomer, unassigned; (+)) [(+)-2-((3,4-trans)-1-([1,2,4]triazolo[1,5-a]pyridin-2-ylmethyl)-4-methylpyrrolidin-3-yl)-7-(5-fluoro-2-methylphenyl)imidazo[5,1-f][1,2,4]triazin-4(3H)-one], the half-inhibitory concentration (IC50) against PDE9A2 (IC50 band, 4.0 μM cGMP substrate, 1 hour at R.T.) is < 1000 nM. For the same compound, the “PDE1A selectivity (versus PDE9A2)” value on PDE1A (ratio of IC50 values PDE1A vs PDE9A2, value greater than 1 indicates greater selectivity for PDE9A2) was found to be 487. For the same compound, the “PDE1B selectivity (versus PDE9A2)” value on PDE1B (ratio of IC50 values PDE1B vs PDE9A2, value greater than 1 indicates greater selectivity for PDE9A2) amounted to 473.
In the case of `Cc1ccccc1-c1ncc2c(=O)[nH]c(C3CN(Cc4nc5ccccn5n4)CC3C)nn12` (single isomer, unassigned; (+)) [(+)-2-((3,4-trans)-1-([1,2,4]triazolo[1,5-a]pyridin-2-ylmethyl)-4-methylpyrrolidin-3-yl)-7-(o-tolyl)imidazo[5,1-f][1,2,4]triazin-4(3H)-one], the IC50 at PDE9A2 (read-out: Band (PDE9A2 IC50)) is < 1000 nM. Besides, the “PDE1A selectivity (versus PDE9A2)” value on PDE1A (setting [1]) was determined as 490. Also, on PDE1B (setting [2]), the “PDE1B selectivity (versus PDE9A2)” value is on record as 429.
As for `CCC(CC)c1ncc2c(=O)[nH]c(C3CN(Cc4nc5ccccn5n4)CC3C)nn12` (single isomer, unassigned; (+)) [(+)-2-((3,4-trans)-1-([1,2,4]triazolo[1,5-a]pyridin-2-ylmethyl)-4-methylpyrrolidin-3-yl)-7-(pentan-3-yl)imidazo[5,1-f][1,2,4]triazin-4(3H)-one], the IC50 at PDE9A2 (setting [3]) was < 1000 nM. At PDE1A (setting [4]), the “PDE1A selectivity (versus PDE9A2)” value is 386. In addition, the “PDE1B selectivity (versus PDE9A2)” value at PDE1B (setting [5]) worked out at 306.
With `CC1CN(Cc2nc3ccccn3n2)CC1c1nn2c(C3CCOCC3)ncc2c(=O)[nH]1` (single isomer, unassigned; (+)) [(+)-2-((3,4-trans)-1-([1,2,4]triazolo[1,5-a]pyridin-2-ylmethyl)-4-methylpyrrolidin-3-yl)-7-(tetrahydro-2H-pyran-4-yl)imidazo[5,1-f][1,2,4]triazin-4(3H)-one], the IC50 on PDE9A2 (setting [6]) was < 1000 nM. Further, the “PDE1A selectivity (versus PDE9A2)” value at PDE1A (setting [7]) worked out at 563. For the same compound, at PDE1B (setting [7]), the “PDE1B selectivity (versus PDE9A2)” value stood at 457.
For `CC1CN(Cc2nc3ccccn3n2)CC1c1nn2c(C3CCCC3)ncc2c(=O)[nH]1` (single isomer, unassigned; (+)) [(+)-2-((3,4-trans)-1-([1,2,4]triazolo[1,5-a]pyridin-2-ylmethyl)-4-methylpyrrolidin-3-yl)-7-cyclopentylimidazo[5,1-f][1,2,4]triazin-4(3H)-one], on PDE9A2 (read-out: Band (PDE9A2 IC50)), the IC50 was < 1000 nM. The “PDE1A selectivity (versus PDE9A2)” value on PDE1A (setting [1]) is 98. In addition, the “PDE1B selectivity (versus PDE9A2)” value on PDE1B (setting [2]) was 204.
In the case of `CC1CN(Cc2ccc3nsnc3c2)CC1c1nn2c(C3CCOCC3)ncc2c(=O)[nH]1` (single isomer, unassigned; (+)) [(+)-2-((3,4-trans)-1-(benzo[c][1,2,5]thiadiazol-5-ylmethyl)-4-methylpyrrolidin-3-yl)-7-(tetrahydro-2H-pyran-4-yl)imidazo[5,1-f][1,2,4]triazin-4(3H)-one], the IC50 at PDE9A2 (setting [8]) was < 1000 nM. Also, the “PDE1A selectivity (versus PDE9A2)” value at PDE1A (setting [9]) worked out at 212. Further, the “PDE1B selectivity (versus PDE9A2)” value at PDE1B (setting [10]) turned out to be 473.
Turning to `CC1CN(Cc2ccoc2)CC1c1nn2c(C3CCOCC3)ncc2c(=O)[nH]1` (single isomer, unassigned; (+)) [(+)-2-((3,4-trans)-1-(furan-3-ylmethyl)-4-methylpyrrolidin-3-yl)-7-(tetrahydro-2H-pyran-4-yl)imidazo[5,1-f][1,2,4]triazin-4(3H)-one], the IC50 on PDE9A2 (setting [8]) was < 1000 nM. The “PDE1A selectivity (versus PDE9A2)” value on PDE1A (setting [9]) amounted to 68. In addition, the “PDE1B selectivity (versus PDE9A2)” value on PDE1B (setting [10]) is reported as 123.
Regarding `Cc1cnccc1-c1ncc2c(=O)[nH]c(C3CN(Cc4cn5ccccc5n4)CC3C)nn12` (single isomer, unassigned; (+)) [(+)-2-((3,4-trans)-1-(imidazo[1,2-a]pyridin-2-ylmethyl)-4-methylpyrrolidin-3-yl)-7-(3-methylpyridin-4-yl)imidazo[5,1-f][1,2,4]triazin-4(3H)-one], the IC50 at PDE9A2 (setting [3]) is < 1000 nM. The “PDE1A selectivity (versus PDE9A2)” value at PDE1A (setting [4]) is recorded as 155. In addition, the “PDE1B selectivity (versus PDE9A2)” value on PDE1B (setting [5]) is given as 149.
`Cc1ccncc1-c1ncc2c(=O)[nH]c(C3CN(Cc4cn5ccccc5n4)CC3C)nn12` (single isomer, unassigned; (+)) [(+)-2-((3,4-trans)-1-(imidazo[1,2-a]pyridin-2-ylmethyl)-4-methylpyrrolidin-3-yl)-7-(4-methylpyridin-3-yl)imidazo[5,1-f][1,2,4]triazin-4(3H)-one]: the IC50 on PDE9A2 (read-out: Band (PDE9A2 IC50)) was < 1000 nM. Besides, the “PDE1A selectivity (versus PDE9A2)” value on PDE1A (setting [1]) stood at 128. Moreover, the “PDE1B selectivity (versus PDE9A2)” value on PDE1B (setting [2]) is reported as 230.
For `Cc1ccccc1-c1ncc2c(=O)[nH]c(C3CN(Cc4cn5ccccc5n4)CC3C)nn12` (single isomer, unassigned; (+)) [(+)-2-((3,4-trans)-1-(imidazo[1,2-a]pyridin-2-ylmethyl)-4-methylpyrrolidin-3-yl)-7-(o-tolyl)imidazo[5,1-f][1,2,4]triazin-4(3H)-one] the same measures were < 1000 nM, 326 and 661.
As to `CCC(CC)c1ncc2c(=O)[nH]c(C3CN(Cc4cn5ccccc5n4)CC3C)nn12` (single isomer, unassigned; (+)) [(+)-2-((3,4-trans)-1-(imidazo[1,2-a]pyridin-2-ylmethyl)-4-methylpyrrolidin-3-yl)-7-(pentan-3-yl)imidazo[5,1-f][1,2,4]triazin-4(3H)-one], the IC50 at PDE9A2 (setting [3]) was < 1000 nM. Further, at PDE1A (setting [4]), the “PDE1A selectivity (versus PDE9A2)” value was 51. Moreover, the “PDE1B selectivity (versus PDE9A2)” value on PDE1B (setting [5]) was 48.
In the case of `CC1CN(Cc2cn3ccccc3n2)CC1c1nn2c(C3CCOCC3)ncc2c(=O)[nH]1` (single isomer, unassigned; (+)) [(+)-2-((3,4-trans)-1-(imidazo[1,2-a]pyridin-2-ylmethyl)-4-methylpyrrolidin-3-yl)-7-(tetrahydro-2H-pyran-4-yl)imidazo[5,1-f][1,2,4]triazin-4(3H)-one], the IC50 on PDE9A2 (setting [6]) was < 1000 nM. The “PDE1A selectivity (versus PDE9A2)” value on PDE1A (setting [7]) was determined as 754. Also, the “PDE1B selectivity (versus PDE9A2)” value on PDE1B (setting [7]) stood at 734.
Turning to `CC1CN(Cc2ccc3nccn3n2)CC1c1nn2c(C3CCOCC3)ncc2c(=O)[nH]1` (single isomer, unassigned; (+)) [(+)-2-((3,4-trans)-1-(imidazo[1,2-b]pyridazin-6-ylmethyl)-4-methylpyrrolidin-3-yl)-7-(tetrahydro-2H-pyran-4-yl)imidazo[5,1-f][1,2,4]triazin-4(3H)-one], the IC50 on PDE9A2 (setting [6]) is < 1000 nM. For the same compound, the “PDE1A selectivity (versus PDE9A2)” value at PDE1A (setting [7]) worked out at 232. Further, the “PDE1B selectivity (versus PDE9A2)” value at PDE1B (setting [7]) was determined as 633.
On to `CC1CN(Cc2ccc3cnccc3c2)CC1c1nn2c(C3CCOCC3)ncc2c(=O)[nH]1` (single isomer, unassigned; (+)) [(+)-2-((3,4-trans)-1-(isoquinolin-6-ylmethyl)-4-methylpyrrolidin-3-yl)-7-(tetrahydro-2H-pyran-4-yl)imidazo[5,1-f][1,2,4]triazin-4(3H)-one], for which the IC50 on PDE9A2 (setting [6]) is < 1000 nM. Moreover, the “PDE1A selectivity (versus PDE9A2)” value on PDE1A (setting [7]) came to 145. Also, the “PDE1B selectivity (versus PDE9A2)” value at PDE1B (setting [7]) turned out to be 335.
For the compound `CC1CN(Cc2ccc3ccncc3c2)CC1c1nn2c(C3CCOCC3)ncc2c(=O)[nH]1` (single isomer, unassigned; (+)) [(+)-2-((3,4-trans)-1-(isoquinolin-7-ylmethyl)-4-methylpyrrolidin-3-yl)-7-(tetrahydro-2H-pyran-4-yl) imidazo [5,1-f] [1,2,4] triazin-4(3H)-one], at PDE9A2 (setting [6]), the IC50 was < 1000 nM. Besides, the “PDE1A selectivity (versus PDE9A2)” value on PDE1A (setting [7]) is 223. Besides, the “PDE1B selectivity (versus PDE9A2)” value on PDE1B (setting [7]) was found to be 893.
For `CC1CN(Cc2ccccc2)CC1c1nn2c(-c3ccccc3F)ncc2c(=O)[nH]1` (single isomer, unassigned; (+)) [(+)-2-((3,4-trans)-1-benzyl-4-methylpyrrolidin-3-yl)-7-(2-fluorophenyl)imidazo[5,1-f][1,2,4]triazin-4(3H)-one], at PDE9A2 (setting [3]), the IC50 is < 1000 nM. The “PDE1A selectivity (versus PDE9A2)” value at PDE1A (setting [4]) came to 76. The “PDE1B selectivity (versus PDE9A2)” value on PDE1B (setting [5]) is 83.
As to `CC1CN(Cc2ccccc2)CC1c1nn2c(-c3cccc(F)c3)ncc2c(=O)[nH]1` (single isomer, unassigned; (+)) [(+)-2-((3,4-trans)-1-benzyl-4-methylpyrrolidin-3-yl)-7-(3-fluorophenyl)imidazo[5,1-f][1,2,4]triazin-4(3H)-one], the IC50 on PDE9A2 (read-out: Band (PDE9A2 IC50)) was < 1000 nM. Further, the “PDE1A selectivity (versus PDE9A2)” value at PDE1A (setting [1]) was 70. Besides, at PDE1B (setting [2]), the “PDE1B selectivity (versus PDE9A2)” value is 113.
As to `Cc1cnccc1-c1ncc2c(=O)[nH]c(C3CN(Cc4ccccc4)CC3C)nn12` (single isomer, unassigned; (+)) [(+)-2-((3,4-trans)-1-benzyl-4-methylpyrrolidin-3-yl)-7-(3-methylpyridin-4-yl) imidazo [5,1-f] [1,2,4] triazin-4 (3H)-one], the IC50 on PDE9A2 (setting [3]) was < 1000 nM. Further, the “PDE1A selectivity (versus PDE9A2)” value at PDE1A (setting [4]) is reported as 167. Moreover, the “PDE1B selectivity (versus PDE9A2)” value at PDE1B (setting [5]) came out at 144.
